Measured values reported in patent US5364842A (priority 1993, dated 1994).
Bridge positions count the residues as written; N and C are the ends. Square brackets hold non-standard residues; d marks the D form. Peptide text beside a SMILES is read from it. Hyp = O=C(O)[C@@H]1C[C@@H](O)CN1

Biological target: N-type or omega HVA neuronal calcium channels; calcium currents in N1E-115 neuroblastoma cells (Mus musculus, UniProt O55017)
Type: cell-based

N-type or omega HVA neuronal calcium channels; calcium currents in N1E-115 neuroblastoma cells, sequence (O55017 whole entry): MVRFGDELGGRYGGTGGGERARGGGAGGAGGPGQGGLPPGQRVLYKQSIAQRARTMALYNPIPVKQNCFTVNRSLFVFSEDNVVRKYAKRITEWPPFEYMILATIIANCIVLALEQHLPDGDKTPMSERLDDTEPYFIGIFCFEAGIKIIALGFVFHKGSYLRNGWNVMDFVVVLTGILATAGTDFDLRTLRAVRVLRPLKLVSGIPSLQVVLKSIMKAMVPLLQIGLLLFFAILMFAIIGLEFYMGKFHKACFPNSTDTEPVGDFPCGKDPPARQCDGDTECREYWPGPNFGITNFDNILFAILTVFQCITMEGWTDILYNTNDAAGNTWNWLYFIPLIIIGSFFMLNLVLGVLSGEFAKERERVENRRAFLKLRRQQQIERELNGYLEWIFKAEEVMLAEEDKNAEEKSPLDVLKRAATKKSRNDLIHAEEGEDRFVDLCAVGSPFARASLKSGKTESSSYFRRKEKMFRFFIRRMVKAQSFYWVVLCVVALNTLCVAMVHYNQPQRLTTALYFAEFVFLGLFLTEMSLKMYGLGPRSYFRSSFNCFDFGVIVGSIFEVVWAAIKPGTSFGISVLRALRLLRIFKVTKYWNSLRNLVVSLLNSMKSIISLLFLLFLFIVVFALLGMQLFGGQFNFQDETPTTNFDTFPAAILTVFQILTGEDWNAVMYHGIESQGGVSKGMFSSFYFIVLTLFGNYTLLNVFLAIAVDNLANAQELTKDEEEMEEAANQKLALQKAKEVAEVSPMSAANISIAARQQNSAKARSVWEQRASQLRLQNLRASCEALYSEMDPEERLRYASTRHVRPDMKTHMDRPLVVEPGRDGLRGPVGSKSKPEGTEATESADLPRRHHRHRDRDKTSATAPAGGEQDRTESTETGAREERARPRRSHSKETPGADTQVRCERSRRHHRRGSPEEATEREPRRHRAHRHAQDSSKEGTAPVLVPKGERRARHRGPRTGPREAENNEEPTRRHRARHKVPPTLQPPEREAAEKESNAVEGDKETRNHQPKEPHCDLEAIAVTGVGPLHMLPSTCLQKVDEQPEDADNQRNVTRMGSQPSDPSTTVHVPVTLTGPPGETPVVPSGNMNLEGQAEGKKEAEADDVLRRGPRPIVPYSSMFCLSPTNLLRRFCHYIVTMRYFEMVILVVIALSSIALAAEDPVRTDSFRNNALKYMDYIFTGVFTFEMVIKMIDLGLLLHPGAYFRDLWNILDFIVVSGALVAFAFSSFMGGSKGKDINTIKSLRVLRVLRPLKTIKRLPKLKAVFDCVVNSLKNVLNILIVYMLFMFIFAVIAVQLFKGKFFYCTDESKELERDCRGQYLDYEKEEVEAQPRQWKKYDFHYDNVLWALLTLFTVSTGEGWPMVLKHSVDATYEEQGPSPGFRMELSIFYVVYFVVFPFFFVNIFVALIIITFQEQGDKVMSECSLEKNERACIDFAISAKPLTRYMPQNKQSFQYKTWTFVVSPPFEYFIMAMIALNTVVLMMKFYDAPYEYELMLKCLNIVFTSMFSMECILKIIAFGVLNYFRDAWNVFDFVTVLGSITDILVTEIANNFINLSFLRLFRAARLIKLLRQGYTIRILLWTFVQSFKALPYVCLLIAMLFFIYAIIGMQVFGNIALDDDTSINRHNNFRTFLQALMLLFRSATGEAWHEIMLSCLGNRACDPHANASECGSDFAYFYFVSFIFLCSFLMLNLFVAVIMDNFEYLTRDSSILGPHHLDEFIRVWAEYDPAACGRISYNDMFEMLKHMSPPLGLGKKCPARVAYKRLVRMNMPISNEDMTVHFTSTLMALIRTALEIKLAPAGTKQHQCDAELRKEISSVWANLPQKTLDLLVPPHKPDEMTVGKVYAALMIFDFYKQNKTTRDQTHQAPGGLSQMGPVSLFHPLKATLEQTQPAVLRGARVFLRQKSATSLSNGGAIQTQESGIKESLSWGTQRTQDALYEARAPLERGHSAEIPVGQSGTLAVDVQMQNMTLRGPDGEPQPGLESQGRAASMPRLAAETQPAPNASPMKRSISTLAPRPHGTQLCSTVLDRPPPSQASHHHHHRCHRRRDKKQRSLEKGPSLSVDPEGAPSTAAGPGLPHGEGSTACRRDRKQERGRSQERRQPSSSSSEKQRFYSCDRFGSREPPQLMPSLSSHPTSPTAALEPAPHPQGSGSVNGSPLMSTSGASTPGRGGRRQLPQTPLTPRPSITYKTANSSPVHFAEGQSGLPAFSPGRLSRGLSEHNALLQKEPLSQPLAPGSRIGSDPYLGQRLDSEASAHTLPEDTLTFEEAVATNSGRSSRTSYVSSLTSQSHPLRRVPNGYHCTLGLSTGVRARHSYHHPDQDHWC
N-type or omega HVA neuronal calcium channels; calcium currents in N1E-115 neuroblastoma cells, sequence (O08532 25-956 partner limits assumed): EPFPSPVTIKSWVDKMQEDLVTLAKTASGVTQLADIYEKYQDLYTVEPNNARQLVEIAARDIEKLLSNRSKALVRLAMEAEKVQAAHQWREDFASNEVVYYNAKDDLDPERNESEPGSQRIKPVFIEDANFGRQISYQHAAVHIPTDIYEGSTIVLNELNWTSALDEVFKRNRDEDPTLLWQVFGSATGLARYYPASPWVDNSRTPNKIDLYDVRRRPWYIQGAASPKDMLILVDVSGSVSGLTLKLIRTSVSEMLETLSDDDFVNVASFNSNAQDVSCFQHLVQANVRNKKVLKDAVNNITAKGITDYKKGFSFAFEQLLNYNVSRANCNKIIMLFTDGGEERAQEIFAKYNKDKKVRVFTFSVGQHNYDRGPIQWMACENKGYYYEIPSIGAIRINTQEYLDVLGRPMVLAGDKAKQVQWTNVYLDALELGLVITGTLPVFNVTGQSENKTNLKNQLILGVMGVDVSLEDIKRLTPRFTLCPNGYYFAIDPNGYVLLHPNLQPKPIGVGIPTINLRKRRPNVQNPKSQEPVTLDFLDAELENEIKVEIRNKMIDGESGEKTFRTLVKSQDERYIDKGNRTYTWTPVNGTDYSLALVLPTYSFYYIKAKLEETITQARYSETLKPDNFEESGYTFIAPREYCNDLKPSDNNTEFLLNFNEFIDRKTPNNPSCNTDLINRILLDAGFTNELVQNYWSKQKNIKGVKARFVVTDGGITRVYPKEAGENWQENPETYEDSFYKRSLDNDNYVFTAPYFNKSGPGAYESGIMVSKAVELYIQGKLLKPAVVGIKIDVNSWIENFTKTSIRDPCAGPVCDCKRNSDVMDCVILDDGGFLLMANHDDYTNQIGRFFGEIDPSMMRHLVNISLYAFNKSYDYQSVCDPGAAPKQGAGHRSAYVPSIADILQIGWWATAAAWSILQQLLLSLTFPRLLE
N-type or omega HVA neuronal calcium channels; calcium currents in N1E-115 neuroblastoma cells, sequence (O08532 957-1103 partner limits assumed): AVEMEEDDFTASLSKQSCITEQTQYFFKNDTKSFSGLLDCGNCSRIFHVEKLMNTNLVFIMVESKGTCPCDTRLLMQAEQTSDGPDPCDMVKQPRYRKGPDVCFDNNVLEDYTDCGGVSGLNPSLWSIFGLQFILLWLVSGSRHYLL

`CC[C@H](C)[C@@H]1NC(=O)[C@H](CO)NC(=O)[C@H]([C@@H](C)O)NC(=O)[C@H](C(C)C)NC(=O)CNC(=O)[C@@H]2CSSC[C@@H]3NC(=O)[C@H](CCCNC(=N)N)NC(=O)CNC(=O)[C@H](CSSC[C@H](N)C(=O)N[C@@H](CCCNC(=N)N)C(=O)N[C@@H](CO)C(=O)N[C@@H](CO)C(=O)NCC(=O)N[C@@H](CO)C(=O)N4C[C@H](O)C[C@H]4C(=O)N2)NC(=O)[C@H](CSSC[C@@H](C(=O)N[C@H](C(N)=O)[C@@H](C)O)NC(=O)[C@H](CCCCN)NC(=O)CNC(=O)[C@H](CCCNC(=N)N)NC(=O)[C@H](Cc2ccc(O)cc2)NC3=O)NC1=O` [SNX-157] (H-CRSSGS[Hyp]CGVTSICCGRCYRGKCT-NH2; disulfide 1-15, 8-18, 14-23) was tested, and the “IC50, inhibition of calcium currents in N1E-115 neuroblastoma cells” value was greater than 20 μM.
